# Test results as given in patent US10111432B2, “Picolinamide N-oxide compounds with fungicidal activity” (Dow AgroSciences LLC, priority 2016, dated 2018).
# Like-named read-outs stand apart in the source and are kept apart here.
# Assays:
# [1] = tested on: Puccinia triticina; experiment: Fungicidal activity: wheat brown rust (PUCCRT), disease control on wheat seedlings; type: in vivo; settings: for pest or weed control at 100 ppm: high volume application; for pest or weed control at 121.5 g/ha: low volume application, 121.5 g/H
# Procedure: Technical grades of materials were dissolved in acetone, which were then mixed with nine volumes of water (H2O) containing 110 ppm Triton X-100. The fungicide solutions were applied onto wheat seedlings using an automated booth sprayer to run-off. All sprayed plants were allowed to air dry prior to further handling. All fungicides were evaluated using the aforementioned method for their activity vs. all target diseases, unless stated otherwise. Wheat leaf blotch and brown rust activity were also evaluated using track spray applications, in which case the fungicides were formulated as EC formulations, containing 0.1% Trycol 5941 in the spray solutions. Wheat plants (variety Yuma) were grown from seed in a greenhouse in 50% mineral soil/50% soil-less Metro mix until the first leaf was fully emerged, with 7-10 seedlings per pot. These plants were inoculated with an aqueous spore suspension of Puccinia triticina either prior to or after fungicide treatments. After inoculation the plants were kept in a dark dew room at 22° C. with 100% relative humidity overnight to permit spores to germinate and infect the leaf. The plants were then transferred to a greenhouse set at 24° C. for disease to develop. Fungicide formulation, application and disease assessment followed the procedures as described in the Example A. Results of the evaluations are shown below in Table 4.
# [2] = tested on: Zymoseptoria tritici; experiment: Fungicidal activity: leaf blotch of wheat (SEPTTR), disease control on wheat seedlings; type: in vivo; settings: for pest or weed control at 100 ppm: high volume application; for pest or weed control at 121.5 g/ha: low volume application, 121.5 g/H
# Procedure: Technical grades of materials were dissolved in acetone, which were then mixed with nine volumes of water (H2O) containing 110 ppm Triton X-100. The fungicide solutions were applied onto wheat seedlings using an automated booth sprayer to run-off. All sprayed plants were allowed to air dry prior to further handling. All fungicides were evaluated using the aforementioned method for their activity vs. all target diseases, unless stated otherwise. Wheat leaf blotch and brown rust activity were also evaluated using track spray applications, in which case the fungicides were formulated as EC formulations, containing 0.1% Trycol 5941 in the spray solutions. Wheat plants (variety Yuma) were grown from seed in a greenhouse in 50% mineral soil/50% soil-less Metro mix until the first leaf was fully emerged, with 7-10 seedlings per pot. These plants were inoculated with an aqueous spore suspension of Zymoseptoria tritici either prior to or after fungicide treatments. After inoculation the plants were kept in 100% relative humidity (one day in a dark dew chamber followed by two to three days in a lighted dew chamber at 20° C.) to permit spores to germinate and infect the leaf. The plants were then transferred to a greenhouse set at 20° C. for disease to develop. When disease symptoms were fully expressed on the 1st leaves of untreated plants, infection levels were assessed on a scale of 0 to 100 percent disease severity. Percent disease control was calculated using the ratio of disease severity on treated plants relative to untreated plants.
# [3] = 24 h, 1 day protectant, read-out: PUCCRT disease control, 1DP, HV activity at 100 ppm
# [4] = 24 h, 1 day protectant, read-out: PUCCRT disease control, 1DP, LV activity at 121.5 g/H
# [5] = 72 h, 3 day curative, read-out: PUCCRT disease control, 3DC, HV activity at 100 ppm
# [6] = 72 h, 3 day curative, read-out: PUCCRT disease control, 3DC, LV activity at 121.5 g/H
# [7] = 24 h, 1 day protectant, read-out: SEPTTR disease control, 1DP, HV activity at 100 ppm
# [8] = 24 h, 1 day protectant, read-out: SEPTTR disease control, 1DP, LV activity at 121.5 g/H
# [9] = 72 h, 3 day curative, read-out: SEPTTR disease control, 3DC, HV activity at 100 ppm
# [10] = 72 h, 3 day curative, read-out: SEPTTR disease control, 3DC, LV activity at 121.5 g/H
SMILES,"pest or weed control at 100 ppm [1, 3]","pest or weed control at 121.5 g/ha [1, 4]","pest or weed control at 100 ppm [1, 5]","pest or weed control at 121.5 g/ha [1, 6]","pest or weed control at 100 ppm [2, 7]","pest or weed control at 121.5 g/ha [2, 8]","pest or weed control at 100 ppm [2, 9]","pest or weed control at 121.5 g/ha [2, 10]"
COc1ccc(C(c2ccc(OC)cc2F)[C@H](C)OC(=O)[C@H](C)NC(=O)c2c(O)c(OC)cc[n+]2[O-])c(F)c1 [Compound 3],> 80%,> 80%,> 80%,≤ 80%,> 80%,> 80%,≤ 80%,≤ 80%
COc1cc[n+]([O-])c(C(=O)N[C@@H](C)C(=O)O[C@@H](C)C(c2ccc(C)c(C)c2)c2ccc(C)c(C)c2)c1O [Compound 15],,≤ 80%,,≤ 80%,,> 80%,,> 80%
COc1cc[n+]([O-])c(C(=O)N[C@@H](C)C(=O)O[C@@H](C)C(c2ccc(Cl)c(C)c2)c2ccc(Cl)c(C)c2)c1O [Compound 7],,> 80%,,≤ 80%,,> 80%,,> 80%
COc1cc[n+]([O-])c(C(=O)N[C@@H](C)C(=O)O[C@@H](C)[C@H](c2ccccc2)c2ccc(C)cc2F)c1O [Compound 33],,≤ 80%,,,,> 80%,,≤ 80%
COc1cc[n+]([O-])c(C(=O)N[C@@H](C)C(=O)O[C@H](C(C)C)[C@H](C)Oc2ccccc2)c1O [Compound 10],> 80%,> 80%,> 80%,> 80%,≤ 80%,> 80%,,
COc1cc[n+]([O-])c(C(=O)N[C@@H](C)C(=O)O[C@@H](C)C(c2ccc(F)cc2)c2ccc(F)cc2)c1O [Compound 13],> 80%,> 80%,> 80%,≤ 80%,> 80%,> 80%,> 80%,> 80%
COc1cc[n+]([O-])c(C(=O)N[C@@H](C)C(=O)O[C@@H](C)C(c2ccc(Cl)cc2)c2ccc(Cl)cc2)c1O [Compound 34],,> 80%,,,,> 80%,,> 80%
COc1cc[n+]([O-])c(C(=O)N[C@@H](C)C(=O)O[C@@H](C)[C@@H](c2ccccc2)c2ccc(F)cc2)c1O [Compound 2],> 80%,> 80%,> 80%,> 80%,> 80%,> 80%,> 80%,
COc1cc(F)ccc1[C@@H](c1ccc(F)c(C)c1)[C@H](C)OC(=O)[C@H](C)NC(=O)c1c(O)c(OC)cc[n+]1[O-] [Compound 23],> 80%,,> 80%,,> 80%,,> 80%,
COc1cc(F)ccc1[C@@H](c1ccc(F)cc1)[C@H](C)OC(=O)[C@H](C)NC(=O)c1c(O)c(OC)cc[n+]1[O-] [Compound 24],> 80%,> 80%,> 80%,≤ 80%,> 80%,> 80%,> 80%,> 80%
COc1cc[n+]([O-])c(C(=O)N[C@@H](C)C(=O)O[C@@H](C)C(c2ccc(F)c(F)c2)c2ccc(F)c(F)c2)c1O [Compound 21],,,,≤ 80%,,> 80%,,> 80%
COc1ccccc1C(c1ccccc1OC)[C@H](C)OC(=O)[C@H](C)NC(=O)c1c(O)c(OC)cc[n+]1[O-] [Compound 30],,≤ 80%,,≤ 80%,,> 80%,,> 80%
COc1cc(Cl)ccc1C(c1ccc(Cl)cc1OC)[C@H](C)OC(=O)[C@H](C)NC(=O)c1c(O)c(OC)cc[n+]1[O-] [Compound 37],,> 80%,,,,> 80%,,≤ 80%
COc1cc[n+]([O-])c(C(=O)N[C@@H](C)C(=O)O[C@@H](C)C(c2ccc(F)c(C)c2)c2ccc(F)c(C)c2)c1O [Compound 17],,≤ 80%,,≤ 80%,,> 80%,,> 80%
COc1cc[n+]([O-])c(C(=O)N[C@@H](C)C(=O)O[C@@H](C)C(c2ccc(C)cc2)c2ccc(C)cc2)c1O [Compound 39],,≤ 80%,,,,> 80%,,≤ 80%
